Assay results taken from patent US20120171274A1, “TRANSDERMAL PATCH” (priority 2006, published 2012).

What was measured:
Assay type in all cases: physicochemical
[1] = Solvency of DMAE in fatty acid ester or additive; details: 50 parts DMAE in 950 parts, 25° C.
Description: When a crystal of DMAE was precipitated […], and when a crystal of DMAE was not precipitated, the solvency was evaluated to be “poor”.

[2] = Residual rate of the active substance in monomer solution (HPLC); details: for Residual Rate of active substance, Immediately after Preparation: 3 parts per 100 parts monomer; for Residual Rate of active substance, after 7 Days: preserved at 25° C. for 7 days
[3] = Solvency of the active substance in monomer (visual inspection); parameters: key: Excellent: The active substance was not found to have been precipitated in the solution of active substance both immediately after the preparation and after the preservation for 7 days.; Good: The active substance was found to have been precipitated in the solution of active substance immediately after the preparation, but the active substance was not found to have been precipitated in the solution of active substance after the preservation for 7 days.; Poor: The active substance was found to have been precipitated in the solution of active substance both immediately after the preparation and after the preservation for 7 days; details: 3 parts active substance per 100 parts monomer, 25° C., 7 days
[4] = Solubility of DMAE at 25° C. (HPLC); details: g per 100 g of solvent
[5] = monomer: 2-Ethylhexyl Methacrylate

## COc1ccc(OC)c(C(O)CN)c1 (stereo not shown) [DMAE, 2-amino-1-(2′,5′-dimethoxyphenyl)ethanol]
[1]; solvent Butylene Glycol
  Solvency of DMAE: Poor
[1]; solvent Diethyl Sebacate
  Solvency of DMAE: Excellent
[1]; solvent Hexyl Laurate
  Solvency of DMAE: Excellent
[1]; solvent Isopropyl Myristate
  Solvency of DMAE: Excellent
[1]; solvent Isopropyl Palmitate
  Solvency of DMAE: Excellent
[1]; solvent Isostearic Acid
  Solvency of DMAE: Poor
[1]; solvent Liquid Paraffin
  Solvency of DMAE: Excellent
[1]; solvent Medium-chain Triglyceride
  Solvency of DMAE: Excellent
[1]; solvent Monoethanolamine
  Solvency of DMAE: Poor
[1]; solvent Octanediol
  Solvency of DMAE: Poor
[1]; solvent Octyldodecyl Myristate
  Solvency of DMAE: Excellent
[1]; solvent Oleic Acid
  Solvency of DMAE: Excellent
[1]; solvent Oleyl Alcohol
  Solvency of DMAE: Excellent
[1]; solvent Polyoxyethylene (2) Lauryl Ether
  Solvency of DMAE: Excellent
[1]; solvent Propylene Glycol
  Solvency of DMAE: Poor
[1]; solvent Squalane
  Solvency of DMAE: Excellent
[1]; solvent Triacetin
  Solvency of DMAE: Poor
[2]; monomer: 1-Vinyl-2-Pyrrolidone
  Residual Rate of active substance, Immediately after Preparation: 100 % by weight
  Residual Rate of active substance, after 7 Days: 100 % by weight
[2]; monomer: 2-Ethylhexyl Acrylate
  Residual Rate of active substance, Immediately after Preparation: 39 % by weight
  Residual Rate of active substance, after 7 Days: 11 % by weight
[2]; [5]
  Residual Rate of active substance, Immediately after Preparation: 99 % by weight
  Residual Rate of active substance, after 7 Days: 99 % by weight
[2]; monomer: Acrylic Acid
  Residual Rate of active substance, Immediately after Preparation: 99 % by weight
  Residual Rate of active substance, after 7 Days: 97 % by weight
[2]; monomer: Butyl Acrylate
  Residual Rate of active substance, Immediately after Preparation: 27 % by weight
[2]; monomer: Butyl Methacrylate
  Residual Rate of active substance, Immediately after Preparation: 98 % by weight
  Residual Rate of active substance, after 7 Days: 98 % by weight
[2]; monomer: Dodecyl Methacrylate
  Residual Rate of active substance, Immediately after Preparation: 100 % by weight
  Residual Rate of active substance, after 7 Days: 99 % by weight
[3]; monomer: 1-Vinyl-2-Pyrrolidone
  Solvency of active substance: Poor
[3]; monomer: 2-Ethylhexyl Acrylate
  Solvency of active substance: Poor
[3]; [5]
  Solvency of active substance: Poor
[3]; monomer: Acrylic Acid
  Solvency of active substance: Excellent
[3]; monomer: Butyl Acrylate
  Solvency of active substance: Good
[3]; monomer: Butyl Methacrylate
  Solvency of active substance: Poor
[3]; monomer: Dodecyl Methacrylate
  Solvency of active substance: Poor
[3]; monomer: Ethyl Acrylate
  Solvency of active substance: Excellent
[4]; in Diethyl Sebacate
  Solubility of DMAE: 0.9 g
[4]; in Hexyl Laurate
  Solubility of DMAE: 0.2 g
[4]; in Isopropyl Myristate
  Solubility of DMAE: 0.2 g
[4]; in Isopropyl Palmitate
  Solubility of DMAE: 0.2 g
[4]; in Liquid Paraffin
  Solubility of DMAE: 0.02 g
[4]; in Medium-chain Triglyceride
  Solubility of DMAE: 0.3 g
[4]; in Octyldodecyl Myristate
  Solubility of DMAE: 0.05 g
[4]; in Oleic Acid
  Solubility of DMAE: 3.7 g
[4]; in Oleyl Alcohol
  Solubility of DMAE: 2.5 g
[4]; in Polyoxyethylene (2) Lauryl Ether
  Solubility of DMAE: 3.7 g
[4]; in Squalane
  Solubility of DMAE: 0.01 g
